Measured values taken from patent US7063946B2, “Methods, reagents, kits and apparatus for protein function analysis” (Meso Scale Technologies, LLC., priority 2001, dated 2006).

How the values were obtained:
[1] = test system: pooled phosphopeptide:BSA conjugates (Pools A-D); test: Coded multiplex phosphopeptide binding assay with pooled peptide:BSA conjugates on 4 spots; settings: for ECL signal, spot A: Pool A, EGFR-pTyr1148, IkBa-24ppC, Myc-p58Tp62S; for ECL signal, spot B: Pool B, EGFR-pTyr992, EGFR-pTyr1148, Smad3C; for ECL signal, spot C: Pool C, EGFR-pTyr1068, IkBa-24ppC, Smad3C; for ECL signal, spot D: Pool D, EGFR-pTyr992, EGFR-pTyr1068, Myc-p58Tp62S
Source text: To prepare the Multi-Spot IPR plates, in this example we made use of pools of the peptide:BSA conjugates to coat each of 4 spots per well in a 96 well plate. To achieve this we made the following pools; • Pool A; EGFR-pTyr1148, IkBa-24ppC, Myc-p58Tp62S. • Pool B; EGFR-pTyr992, EGFR-pTyr1148, Smad3C. • Pool C; EGFR-pTyr1068, IkBa-24ppC, Smad3C. • Pool D; EGFR-pTyr992, EGFR-pTyr1068, Myc-p58Tp62S.
This combination of the various peptides results in any single peptide being present in two pools. Each of these four pools is then spotted on to a unique spot in a 4 spot array. In this way any single binding protein with specificity for only one of the peptides would bind to two spots; the identity of the two spots would allow the identification of the peptide involved in the binding reaction.
Typically approximately 120 fmole of peptide:BSA conjugate in 0.25 μl was deposited on each spot of a 4-spot multi-array IPR plates using a BioDot Dispenser (Bio-Dot Inc., vIrvine Calif.). At this stage, the plates were dried then used or stored under desiccated condition. A few hours prior to usage, the plates were rehydrated and blocked with 3% BSA, in PBS.
To test the system the following EST clones IMAGE # 3491843, 4237375, 4398016, 4419252, 3872466, 3907115 were obtained. These clones express the following genes βTRCP1, βTRCP2, Grb2, PLCγ, CBP and Shc1, respectively. […] These DNAs were used to produce proteins as described in the Materials and Methods. Proteins were transferred to a well of the 4 spot peptide-coated and BSA blocked ECL plates. The binding assay (using Sulfo-TAG labeled streptavidin as a detection agent) was carried our according to the procedures described in Example 11.

IkBa-24pp (SEQ ID NO: 1) = biological target: T1, IkBa-24pp (SEQ ID NO: 1) (Homo sapiens, UniProt P25963); test: Single-well 4-spot assay for multiple peptide-protein interactions; format: binding; settings: for ECL signal, spot 1 IkBa-24pp: 4-spot plate
T1 construct: two phosphoserines in the DSGLDS motif (chemical modification); purchased New England Peptide, Fitchburg Mass; host or cells: chemical synthesis
Source text: Four phosphopeptides and their cognate binding proteins (Table 14) were selected for an integrated assay of multiple peptide-protein interaction in 4-spot Multi-Array plates. The IkBa-24pp peptide and its binding protein, βTRCP, are described in Example 10. The remaining peptides are derived from the carboxyl terminus of the EGF receptor. These phosphotyrosine containing peptides are recognized by different adaptor or effecter proteins of the receptor tyrosine kinase signaling pathway.
These four peptides were coupled to BSA carrier protein through cystine residue. After purification on PD-10 gel filtration columns, the peptide-BSA conjugates were then deposited on the assay domains of a 4-spot multi-array IPR plate (i.e., in one of the four exposed regions of working electrode defined by the dielectric layer) with an automated micro-dispensing system (Bio-Dot Dispenser, Bio-Dot, Irvine Calif.). Typically about 120 fmole of peptide:BSA conjugate in 0.25 μl was deposited on each spot of a 4-spot multi-array IPR plate. These plates are dried then used or stored under desiccated conditions. A few hours prior to usage the plates were rehydrated and blocked with 3% BSA in PBS. EST clones encoding βTRCP1 (3491843), βTRCP2 (4237375), mCBP (3872466) Grb2 (4398016) and PLCγ (4419252) (Incyte, Palo Alto, Calif.), were isolated using a QIA-prep column (QIAGEN, Los Angeles, Calif.) and used to program protein expression in a Quick coupled SP6 TnT reaction supplemented with Transcend biotin-tRNA label following the manufactures protocol (Promega, Madison Wis.). The in vitro translated and biotin-labeled proteins were then assayed in the 4-spot multi-array IPR plates under conditions described in Example 10. […] By contrast spots 2–4 in the same wells gave low ECL signals. Thus, in this assay format, each peptide not only serves as the capture agent for assaying specific interaction with its binding protein, but also at the same time serves as a control for other peptide-protein interaction to be determined in the same well. […]

T1 sequence (P25963 with tags, fused parts or gaps limits assumed): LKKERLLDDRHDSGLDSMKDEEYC

| Substance | Code (pattern of positive spots) [1] | Peptide determined from code [1] | ECL signal, spot A [1] | ECL signal, spot B [1] | ECL signal, spot C [1] | ECL signal, spot D [1] | ECL signal, spot 1 IkBa-24pp (IkBa-24pp (SEQ ID NO: 1)) | fold higher ECL signal from spot 1 than with TnT mixtures containing no exogenous DNA (IkBa-24pp (SEQ ID NO: 1); spot 1 (IkBa-24pp-BSA conjugate)) |
| --- | --- | --- | --- | --- | --- | --- | --- | --- |
| 3491843: IMAGE clone protein: βTRCP1 [compound 3491843] | A, C | IkBa-24ppC | 9536 | 208 | 11184 | 171 | 2466 | 100 fold |
| 3872466: IMAGE clone protein: mCBP [compound 3872466] | Neg. | Negative | 19 | 30 | 22 | 15 | 446 |  |
